Assays:
[1] = Phase 1 single ascending dose (SAD, Part A) safety and tolerability in healthy subjects; type: in vivo, human; conditions: for Most frequent TEAEs: Apthous ulcer / Most frequent TEAEs: Back pain / Most frequent TEAEs: Diarrhea / Most frequent TEAEs: Headache / Most frequent TEAEs: Pain in extremity / Subjects with TEAEs: Any TEAE / Subjects with TEAEs: Moderate or severe TEAE / Subjects with TEAEs: Seriou TEAE / Subjects with TEAEs: TEAE leading to discontinuation / Total number of TEAEs: SAD, n = 6
Description: This clinical study was the first in human study of a compound of formula (I). The purpose of this study was to assess the safety, tolerability and pharmacokinetics (PK) of the compound of formula (I) through single ascending dose administration (Part A) and multiple dose administrations (Part B) in healthy subjects.
The number and severity of treatment emergent adverse events (TEAE5) following single (Part A) or multiple (Parts B) oral doses of the compound of formula (I) and matching placebo, and changes in safety laboratory assessments, vital signs, and ECGs.
32 healthy, adult male and female subjects were enrolled in Part A. Four cohorts (A1 to A4) of 8 healthy subjects (6 active and 2 placebo) were evaluated.
In each cohort, healthy subjects meeting eligibility criteria were sequentially randomized in a 3:1 ratio to receive either the compound of formula (I) or matching placebo. Study drug was administered orally as a single dose on the morning of Day 1 following an overnight fast of at least 9.5 hours. Subjects were dosed in an upright (i.e., seated or standing) position and remained upright for 5 minutes following dosing prior to performing study procedures which require a posture change. Subjects were to remain fasted, except water, until after the 4-hour post-dose assessments were completed and the 4-hour post dose PK sample was collected. PK sampling for the compound of formula (I) in plasma and urine were taken Day 1 pre-dose and for 72 hours post-dose.
Safety was determined by evaluating physical examinations, vital signs, safety 12-lead electrocardiograms (ECGs) monitoring, clinical laboratory tests, and adverse events (AEs). For procedures scheduled to be performed at common times, collection of PK samples was collected as close as possible to the designated time. The cardiodynamic recordings via ECG extractions from the Holter monitor were conducted as close as possible prior to the corresponding PK sampling. Vital signs, followed by safety ECGs, were be taken before the PK sampling (or before the cardiodynamic sampling if scheduled at the same time), unless PK samples were late as a result in which case vital signs were taken following the PK sampling.
Safety analyses were performed using the Safety analysis set. Safety variables include vital signs, adverse events, clinical laboratory results (hematology, chemistry, coagulation, and urinalysis), and ECG parameters, such as Friderica's corrected QT interval (QTcF), PR interval, QT interval, QRS interval, and heart rate, from standard safety digital ECGs. Vital signs were summarized in terms of observed values and changes from baseline.

[2] = biological target: T1, JAK3 (Homo sapiens, UniProt P52333); assay: Protein-adjusted JAK3 IC50 (reference value, data on file); type: cell-based
T1 sequence (P52333 1-1124): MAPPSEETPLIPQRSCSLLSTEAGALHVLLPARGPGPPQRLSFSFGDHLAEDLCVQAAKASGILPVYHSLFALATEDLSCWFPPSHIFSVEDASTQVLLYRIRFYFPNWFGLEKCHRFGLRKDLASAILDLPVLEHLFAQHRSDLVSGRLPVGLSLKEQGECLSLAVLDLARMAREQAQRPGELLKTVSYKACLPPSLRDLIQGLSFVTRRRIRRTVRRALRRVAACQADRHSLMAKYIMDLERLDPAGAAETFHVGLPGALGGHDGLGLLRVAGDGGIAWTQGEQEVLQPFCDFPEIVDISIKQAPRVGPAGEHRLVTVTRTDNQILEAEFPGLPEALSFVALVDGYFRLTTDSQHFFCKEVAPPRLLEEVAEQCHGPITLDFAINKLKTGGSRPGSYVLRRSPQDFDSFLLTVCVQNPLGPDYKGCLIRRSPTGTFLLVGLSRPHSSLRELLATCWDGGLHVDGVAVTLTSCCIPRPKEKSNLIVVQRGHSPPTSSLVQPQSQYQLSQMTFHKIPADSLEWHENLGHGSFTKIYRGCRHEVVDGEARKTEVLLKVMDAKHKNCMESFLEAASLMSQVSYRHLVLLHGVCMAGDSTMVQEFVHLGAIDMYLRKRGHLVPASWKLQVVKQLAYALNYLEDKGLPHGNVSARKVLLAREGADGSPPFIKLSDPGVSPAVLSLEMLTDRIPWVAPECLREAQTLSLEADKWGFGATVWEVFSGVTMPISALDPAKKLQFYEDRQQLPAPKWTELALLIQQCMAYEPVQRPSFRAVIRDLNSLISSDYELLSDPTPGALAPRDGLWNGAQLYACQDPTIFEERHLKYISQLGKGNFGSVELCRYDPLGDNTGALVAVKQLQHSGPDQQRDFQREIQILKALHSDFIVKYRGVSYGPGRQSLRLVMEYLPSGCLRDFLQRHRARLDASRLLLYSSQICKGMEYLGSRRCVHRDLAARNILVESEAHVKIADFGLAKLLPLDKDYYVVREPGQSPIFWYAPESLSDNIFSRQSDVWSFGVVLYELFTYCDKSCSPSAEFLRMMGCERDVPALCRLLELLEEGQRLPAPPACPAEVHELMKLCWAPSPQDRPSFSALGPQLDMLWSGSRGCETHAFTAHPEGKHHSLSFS
Description: In FIG. 11B, gray box indicates day 1 of MAD portion. Symbols and error bars represent the arithmetic mean plus SD, and reference IC50 values shown are from data on file. BID, twice daily; HuPBMC, human peripheral blood mononuclear cell; IC50, concentration producing 50% of maximal inhibition.

## CN(C)C/C=C/C(=O)N1CC(COc2cc(-c3ccc(O)cc3)cc3[nH]ncc23)C1 [compound of formula (I)]
[1]; SAD cohorts
  serious AEs: No serious AEs
  severity of reported treatment-emergent AEs: mild
[1]; SAD cohorts, 2000 mg
  AEs considered related to study drug (diarrhea, abdominal discomfort, and vomiting): Three
[1]; SAD cohorts, any time point postdose
  changes from predose baseline in laboratory assessments (lipid, coagulation, hematology), vital signs or ECGs: No clinically significant changes
[1]; single oral dose 100 mg
  Most frequent TEAEs: Apthous ulcer: 1 (17)
  Most frequent TEAEs: Back pain: 1 (17)
  Most frequent TEAEs: Diarrhea: 0
  Most frequent TEAEs: Headache: 1 (17)
  Most frequent TEAEs: Pain in extremity: 3 (50)
  Subjects with TEAEs: Any TEAE: 4 (67)
  Subjects with TEAEs: Moderate or severe TEAE: 0
  Subjects with TEAEs: Seriou TEAE: 0
  Subjects with TEAEs: TEAE leading to discontinuation: 0
  Total number of TEAEs: 8
[1]; single oral dose 300 mg
  Most frequent TEAEs: Apthous ulcer: 0
  Most frequent TEAEs: Back pain: 0
  Most frequent TEAEs: Diarrhea: 0
  Most frequent TEAEs: Headache: 0
  Most frequent TEAEs: Pain in extremity: 1 (17)
  Subjects with TEAEs: Any TEAE: 2 (33)
  Subjects with TEAEs: Moderate or severe TEAE: 0
  Subjects with TEAEs: Seriou TEAE: 0
  Subjects with TEAEs: TEAE leading to discontinuation: 0
  Total number of TEAEs: 2
[1]; single oral dose 1000 mg
  Most frequent TEAEs: Apthous ulcer: 0
  Most frequent TEAEs: Back pain: 1 (17)
  Most frequent TEAEs: Diarrhea: 1 (17)
  Most frequent TEAEs: Headache: 0
  Most frequent TEAEs: Pain in extremity: 0
  Subjects with TEAEs: Any TEAE: 2 (33)
  Subjects with TEAEs: Moderate or severe TEAE: 0
  Subjects with TEAEs: Seriou TEAE: 0
  Subjects with TEAEs: TEAE leading to discontinuation: 0
  Total number of TEAEs: 6
[1]; single oral dose 2000 mg
  Most frequent TEAEs: Apthous ulcer: 1 (17)
  Most frequent TEAEs: Back pain: 0
  Most frequent TEAEs: Diarrhea: 1 (17)
  Most frequent TEAEs: Headache: 1 (17)
  Most frequent TEAEs: Pain in extremity: 0
  Subjects with TEAEs: Any TEAE: 3 (50)
  Subjects with TEAEs: Moderate or severe TEAE: 0
  Subjects with TEAEs: Seriou TEAE: 0
  Subjects with TEAEs: TEAE leading to discontinuation: 0
  Total number of TEAEs: 6
[1]; single dose up to 2000 mg
  tolerability: generally well-tolerated
[2]
  IC50: 369 nM
